From ChEMBL document CHEMBL1201862, “PubChem BioAssay data set” (2004)
The source made the active and inactive calls.

Experiments:
[1] = biological target: T1, Tyrosine-protein phosphatase non-receptor type 7 (Homo sapiens, UniProt P35236); assay type: functional
T1 sequence (P35236 whole entry): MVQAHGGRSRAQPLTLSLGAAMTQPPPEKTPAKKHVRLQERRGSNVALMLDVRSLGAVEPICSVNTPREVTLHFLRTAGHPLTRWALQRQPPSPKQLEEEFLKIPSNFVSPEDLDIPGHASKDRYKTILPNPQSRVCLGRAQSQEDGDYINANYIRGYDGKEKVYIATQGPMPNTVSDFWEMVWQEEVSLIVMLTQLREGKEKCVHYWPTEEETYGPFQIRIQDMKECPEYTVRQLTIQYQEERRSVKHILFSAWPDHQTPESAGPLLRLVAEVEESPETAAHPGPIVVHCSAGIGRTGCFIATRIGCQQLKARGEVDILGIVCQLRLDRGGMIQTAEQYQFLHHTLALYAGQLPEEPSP

[2] = biological target: T2, Tyrosine-protein phosphatase non-receptor type 22 (Homo sapiens, UniProt Q9Y2R2); assay type: functional
T2 sequence (Q9Y2R2 whole entry): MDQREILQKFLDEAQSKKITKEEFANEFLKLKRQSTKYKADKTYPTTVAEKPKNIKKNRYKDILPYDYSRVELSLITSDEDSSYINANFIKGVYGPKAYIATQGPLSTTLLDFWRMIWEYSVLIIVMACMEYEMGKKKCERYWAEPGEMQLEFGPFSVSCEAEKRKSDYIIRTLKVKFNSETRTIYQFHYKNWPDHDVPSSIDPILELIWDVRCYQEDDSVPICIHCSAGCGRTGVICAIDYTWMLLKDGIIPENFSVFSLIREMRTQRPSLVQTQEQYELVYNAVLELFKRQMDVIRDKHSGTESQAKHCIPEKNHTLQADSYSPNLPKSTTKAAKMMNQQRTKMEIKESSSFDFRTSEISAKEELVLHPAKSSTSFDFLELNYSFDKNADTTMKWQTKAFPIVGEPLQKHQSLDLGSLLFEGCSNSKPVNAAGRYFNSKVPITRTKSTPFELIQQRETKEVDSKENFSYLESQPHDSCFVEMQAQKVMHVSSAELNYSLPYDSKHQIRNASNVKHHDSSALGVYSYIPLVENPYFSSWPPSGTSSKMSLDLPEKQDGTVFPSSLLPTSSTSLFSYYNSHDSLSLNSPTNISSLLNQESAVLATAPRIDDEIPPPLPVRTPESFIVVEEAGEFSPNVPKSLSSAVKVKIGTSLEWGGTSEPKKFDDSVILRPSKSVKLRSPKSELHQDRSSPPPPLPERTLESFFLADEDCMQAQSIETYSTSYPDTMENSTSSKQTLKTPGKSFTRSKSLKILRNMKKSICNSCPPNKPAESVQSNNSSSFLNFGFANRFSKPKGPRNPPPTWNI

[3] = biological target: T2, Tyrosine-protein phosphatase non-receptor type 22; assay type: functional; remark: listed apart in the source
[4] = biological target: Sphingosine 1-phosphate receptor 5 (Homo sapiens, UniProt Q9H228); test: Late stage counterscreen assay for S1P4 antagonists: Fluorescence dose response cell-based screening assay for antagonists of the Sphingosine 1-Phosphate Receptor 5 (S1P5). [Related pubchem assays (depositor defined):AID1510, AID1524, AID1692, AID1853, AID2332, AID489009, AID489017]; assay type: functional
[5] = biological target: Sphingosine 1-phosphate receptor 3 (Homo sapiens, UniProt Q99500); test: Late stage counterscreen assay for S1P4 antagonists: Fluorescence dose response cell-based screening assay for antagonists of the Sphingosine 1-Phosphate Receptor 3 (S1P3). [Related pubchem assays (depositor defined):AID1510, AID1524, AID1692, AID1853, AID2332, AID489009, AID489017]; assay type: functional
[6] = biological target: Sphingosine 1-phosphate receptor 1 (Homo sapiens, UniProt P21453); test: Late stage counterscreen assay for S1P4 antagonists: Fluorescence dose response cell-based screening assay for antagonists of the Sphingosine 1-Phosphate Receptor 1 (S1P1). [Related pubchem assays (depositor defined):AID1510, AID1524, AID1692, AID1853, AID2332, AID489009, AID489017]; assay type: functional
[7] = biological target: Sphingosine 1-phosphate receptor 2 (Homo sapiens, UniProt O95136); test: Late stage counterscreen assay for S1P4 antagonists: Fluorescence dose response cell-based screening assay for antagonists of the Sphingosine 1-Phosphate Receptor 2 (S1P2). [Related pubchem assays (depositor defined):AID1510, AID1524, AID1692, AID1853, AID2332, AID489009, AID489017]; assay type: functional
Aminopeptidase N = biological target: T3, Aminopeptidase N (Plasmodium falciparum FcB1/Columbia, UniProt O96935); test: P. falciparum M1AAP inhibitors, biochemical, fluorogenic H-Leu-NHMec substrate, 1536-well (AID 1445); set-up: species or system Plasmodium falciparum 3D7, 3D7
T3 sequence (O96935 whole entry): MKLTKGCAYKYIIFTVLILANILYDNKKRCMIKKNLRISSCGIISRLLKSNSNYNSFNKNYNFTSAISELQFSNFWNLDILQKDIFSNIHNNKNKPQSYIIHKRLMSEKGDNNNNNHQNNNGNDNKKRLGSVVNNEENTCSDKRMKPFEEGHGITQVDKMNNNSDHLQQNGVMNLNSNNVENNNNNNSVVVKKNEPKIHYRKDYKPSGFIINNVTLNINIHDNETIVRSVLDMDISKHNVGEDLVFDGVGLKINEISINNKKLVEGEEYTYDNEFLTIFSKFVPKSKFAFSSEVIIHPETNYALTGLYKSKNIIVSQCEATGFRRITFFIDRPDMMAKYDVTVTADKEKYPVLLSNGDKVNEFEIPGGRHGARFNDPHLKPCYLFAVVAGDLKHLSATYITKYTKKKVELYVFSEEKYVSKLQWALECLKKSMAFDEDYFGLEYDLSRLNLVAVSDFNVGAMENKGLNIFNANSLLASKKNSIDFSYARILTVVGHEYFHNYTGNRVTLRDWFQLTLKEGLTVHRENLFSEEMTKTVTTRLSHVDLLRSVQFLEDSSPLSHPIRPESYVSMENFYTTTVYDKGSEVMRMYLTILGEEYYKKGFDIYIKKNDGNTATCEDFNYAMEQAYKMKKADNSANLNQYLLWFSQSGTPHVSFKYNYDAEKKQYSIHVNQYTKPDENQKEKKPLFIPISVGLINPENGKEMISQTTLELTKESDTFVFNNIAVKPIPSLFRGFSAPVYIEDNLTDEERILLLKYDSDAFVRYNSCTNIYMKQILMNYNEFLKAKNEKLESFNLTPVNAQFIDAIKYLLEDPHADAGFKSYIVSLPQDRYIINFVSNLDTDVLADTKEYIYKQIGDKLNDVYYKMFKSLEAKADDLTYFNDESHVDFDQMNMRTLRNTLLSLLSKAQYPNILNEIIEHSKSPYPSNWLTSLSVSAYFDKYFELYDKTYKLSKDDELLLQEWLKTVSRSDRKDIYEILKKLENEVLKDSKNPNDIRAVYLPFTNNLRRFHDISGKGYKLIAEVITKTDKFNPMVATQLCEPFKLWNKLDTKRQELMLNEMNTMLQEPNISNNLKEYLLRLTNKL

[8] = biological target: T4, Runt-related transcription factor 1/Core-binding factor subunit beta (Homo sapiens, UniProt Q01196+Q13951); test: inhibitors of RUNX1 Runt–CBFb-SMMHC binding, primary screen, biochemical, FRET, Cerulean-Runt, Venus-CBFb-SMMHC, uHTS (AID 1434); assay type: protein assay;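 further: partner is the CBFb-SMMHC leukemia fusion protein rather than wild-type CBFb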
[9] = biological target: T4, Runt-related transcription factor 1/Core-binding factor subunit beta; test: inhibitors of RUNX1 Runt–CBFb-SMMHC binding, biochemical, TR-FRET (AID 1438); assay type: protein assay
[10] = biological target: T5, Intestinal-type alkaline phosphatase (Homo sapiens, UniProt P09923); test: Dose Response confirmation of uHTS hits from a small molecule inhibitors of human intestinal alkaline phosphatase via a luminescent assay. [Related pubchem assays (depositor defined):AID2544, AID2574]; assay type: functional
[11] = biological target: T5, Intestinal-type alkaline phosphatase; test: human intestinal alkaline phosphatase activators, dose response, biochemical, luminescence, uHTS hits (AID 463120); assay type: functional
[12] = biological target: Voltage-dependent T-type calcium channel subunit alpha-1H (Homo sapiens, UniProt O95180); test: Cav3.2 T-type channel blockers, cell-based, SynthLib3 library, HEK293 Cav3.2, fluorescence (AID 493041); assay type: functional
[13] = biological target: Signal transducer and activator of transcription 3 (Homo sapiens, UniProt P40763); test: STAT3 inhibitors, late-stage profile, late-stage follow-up, cell-based, STAT1 panel, qPCR, cytotoxicity, panel member STAT3 Inhibition (AID 2078)
[14] = biological target: Signal transducer and activator of transcription 1-alpha/beta (Homo sapiens, UniProt P42224); test: STAT3 inhibitors, late-stage profile, late-stage follow-up, cell-based, STAT1 panel, qPCR, cytotoxicity, panel member STAT1 Inhibition (AID 2078)
Hexokinase HKDC1 = Hexokinase HKDC1 (Homo sapiens, UniProt Q2TB90); test: HKDC1 hexokinase inhibitors, dose response, biochemical, W721R variant (AID 504729); assay type: functional
Hexokinase-1 = Hexokinase-1 (Homo sapiens, UniProt P19367); test: hexokinase 1 activators, dose response, selectivity assay for HKDC1 activator project, biochemical (AID 504762); assay type: functional
[15] = biological target: T6, Rac GTPase-activating protein 1 (Homo sapiens, UniProt Q9H0H5); test: MgcRacGAP GTPase-activating activity inhibitors, confirmation, biochemical, ADP Hunter fluorescence, primary and confirmatory (AID 624330); assay type: functional
T6 sequence (Q9H0H5 whole entry): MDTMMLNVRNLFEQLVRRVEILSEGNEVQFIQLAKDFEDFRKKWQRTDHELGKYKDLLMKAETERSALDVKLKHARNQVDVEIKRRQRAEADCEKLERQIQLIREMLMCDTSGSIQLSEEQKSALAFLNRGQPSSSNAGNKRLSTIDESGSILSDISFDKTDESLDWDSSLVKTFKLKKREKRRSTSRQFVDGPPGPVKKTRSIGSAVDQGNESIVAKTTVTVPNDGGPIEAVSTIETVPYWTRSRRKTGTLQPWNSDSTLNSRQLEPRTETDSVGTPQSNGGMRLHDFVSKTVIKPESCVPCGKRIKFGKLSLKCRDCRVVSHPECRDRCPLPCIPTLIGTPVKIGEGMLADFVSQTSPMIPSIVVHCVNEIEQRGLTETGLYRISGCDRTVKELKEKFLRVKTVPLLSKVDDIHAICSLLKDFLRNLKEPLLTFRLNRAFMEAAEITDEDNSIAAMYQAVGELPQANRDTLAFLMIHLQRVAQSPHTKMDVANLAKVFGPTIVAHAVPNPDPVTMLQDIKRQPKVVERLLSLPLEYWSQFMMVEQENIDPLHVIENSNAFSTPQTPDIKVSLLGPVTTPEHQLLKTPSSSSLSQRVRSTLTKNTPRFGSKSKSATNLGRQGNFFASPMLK

[16] = biological target: T7, Kappa-type opioid receptor (Homo sapiens, UniProt P41145); test: KOR agonist analogs, arrestin-GFP redistribution, SAR follow-up, imaging, image-based, set 3 (AID 488833); assay type: functional
Mu-type opioid receptor = Mu-type opioid receptor (Homo sapiens, UniProt P35372); test: SAR Analysis of Agonists of the MOR Receptor using an Image-Based Assay - Set 3. [Related pubchem assays (depositor defined):AID1777, AID1785, AID1786, AID1966, AID2133, AID2136, AID2284, AID2285, AID2352]; assay type: functional
[17] = biological target: Delta-type opioid receptor (Homo sapiens, UniProt P41143); test: SAR Analysis of Agonists of the DOR Receptor using an Image-Based Assay - Set 3. [Related pubchem assays (depositor defined):AID1777, AID1786]; assay type: functional
[18] = biological target: T7, Kappa-type opioid receptor; test: SAR analysis of small molecule agonists of the kappa opioid receptor via a luminescent beta-arrestin assay - Set 3. [Related pubchem assays (depositor defined):AID1777, AID1785, AID1786, AID1966, AID2133, AID2136, AID2284, AID2500]; assay type: functional
[19] = biological target: T1, Tyrosine-protein phosphatase non-receptor type 7; test: HePTP (PTPN7) phosphatase inhibitor potency, SAR follow-up, biochemical, set 2 (AID 449736); assay type: functional

T7 sequence (P41145 whole entry): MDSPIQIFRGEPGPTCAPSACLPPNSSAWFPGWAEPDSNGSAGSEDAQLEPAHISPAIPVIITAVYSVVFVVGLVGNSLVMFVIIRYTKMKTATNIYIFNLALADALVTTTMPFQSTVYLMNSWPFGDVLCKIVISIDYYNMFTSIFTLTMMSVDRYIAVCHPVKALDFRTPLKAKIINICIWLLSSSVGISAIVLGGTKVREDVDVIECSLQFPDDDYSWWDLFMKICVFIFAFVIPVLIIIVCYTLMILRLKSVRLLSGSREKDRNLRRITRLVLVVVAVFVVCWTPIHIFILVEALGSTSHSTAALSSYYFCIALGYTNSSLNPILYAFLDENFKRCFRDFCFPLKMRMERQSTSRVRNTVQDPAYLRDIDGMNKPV
T4 sequence (Q01196 whole entry, the tested form may be a part): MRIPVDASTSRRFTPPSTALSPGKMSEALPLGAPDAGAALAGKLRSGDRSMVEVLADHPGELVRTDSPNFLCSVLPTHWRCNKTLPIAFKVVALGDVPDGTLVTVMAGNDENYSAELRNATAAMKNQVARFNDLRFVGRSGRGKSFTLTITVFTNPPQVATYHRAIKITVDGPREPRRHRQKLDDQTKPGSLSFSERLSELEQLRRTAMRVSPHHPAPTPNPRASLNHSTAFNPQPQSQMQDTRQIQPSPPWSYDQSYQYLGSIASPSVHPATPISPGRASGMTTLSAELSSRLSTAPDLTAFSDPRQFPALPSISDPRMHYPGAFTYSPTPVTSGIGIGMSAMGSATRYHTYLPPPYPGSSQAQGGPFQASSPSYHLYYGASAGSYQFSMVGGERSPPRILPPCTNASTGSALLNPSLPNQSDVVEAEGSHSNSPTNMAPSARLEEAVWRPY
T4 sequence (Q13951 whole entry, the tested form may be a part): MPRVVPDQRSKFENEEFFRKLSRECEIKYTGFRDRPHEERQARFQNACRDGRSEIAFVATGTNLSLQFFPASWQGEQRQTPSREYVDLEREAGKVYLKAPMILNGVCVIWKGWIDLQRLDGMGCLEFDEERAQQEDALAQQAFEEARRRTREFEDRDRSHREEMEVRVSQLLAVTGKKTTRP
T5 sequence (P09923 whole entry): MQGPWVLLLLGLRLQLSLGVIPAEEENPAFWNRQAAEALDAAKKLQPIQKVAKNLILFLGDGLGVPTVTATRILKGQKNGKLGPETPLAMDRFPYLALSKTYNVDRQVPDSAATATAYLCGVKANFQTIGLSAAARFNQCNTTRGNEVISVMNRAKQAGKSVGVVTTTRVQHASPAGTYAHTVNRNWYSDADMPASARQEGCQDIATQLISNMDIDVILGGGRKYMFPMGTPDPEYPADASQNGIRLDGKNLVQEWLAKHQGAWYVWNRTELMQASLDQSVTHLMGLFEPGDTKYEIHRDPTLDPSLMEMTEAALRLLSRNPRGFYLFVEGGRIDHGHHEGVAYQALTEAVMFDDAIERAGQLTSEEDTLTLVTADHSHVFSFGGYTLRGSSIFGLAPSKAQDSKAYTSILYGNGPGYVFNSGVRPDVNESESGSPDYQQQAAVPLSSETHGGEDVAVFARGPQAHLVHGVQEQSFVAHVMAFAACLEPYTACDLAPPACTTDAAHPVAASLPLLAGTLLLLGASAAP
Sequence of Sphingosine 1-phosphate receptor 1 (P21453 whole entry): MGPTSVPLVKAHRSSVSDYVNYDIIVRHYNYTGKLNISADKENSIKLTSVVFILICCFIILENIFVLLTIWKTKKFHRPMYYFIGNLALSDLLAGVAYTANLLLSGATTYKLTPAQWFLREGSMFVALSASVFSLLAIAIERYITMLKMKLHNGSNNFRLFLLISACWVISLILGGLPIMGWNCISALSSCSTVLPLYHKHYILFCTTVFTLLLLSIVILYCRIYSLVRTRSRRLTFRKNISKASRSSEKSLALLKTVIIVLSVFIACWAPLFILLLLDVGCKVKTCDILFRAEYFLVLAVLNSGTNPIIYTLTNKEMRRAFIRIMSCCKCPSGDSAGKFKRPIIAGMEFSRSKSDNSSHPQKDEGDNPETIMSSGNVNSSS
Sequence of Sphingosine 1-phosphate receptor 2 (O95136 whole entry): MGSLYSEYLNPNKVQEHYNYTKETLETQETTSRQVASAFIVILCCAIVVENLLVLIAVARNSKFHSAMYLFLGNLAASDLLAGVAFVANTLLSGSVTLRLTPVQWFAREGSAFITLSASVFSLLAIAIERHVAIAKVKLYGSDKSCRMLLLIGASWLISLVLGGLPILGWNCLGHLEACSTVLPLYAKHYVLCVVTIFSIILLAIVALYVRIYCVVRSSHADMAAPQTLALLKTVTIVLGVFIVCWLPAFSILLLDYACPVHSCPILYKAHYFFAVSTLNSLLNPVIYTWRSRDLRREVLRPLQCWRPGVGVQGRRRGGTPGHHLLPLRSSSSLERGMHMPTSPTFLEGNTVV
Sequence of Mu-type opioid receptor (P35372 whole entry): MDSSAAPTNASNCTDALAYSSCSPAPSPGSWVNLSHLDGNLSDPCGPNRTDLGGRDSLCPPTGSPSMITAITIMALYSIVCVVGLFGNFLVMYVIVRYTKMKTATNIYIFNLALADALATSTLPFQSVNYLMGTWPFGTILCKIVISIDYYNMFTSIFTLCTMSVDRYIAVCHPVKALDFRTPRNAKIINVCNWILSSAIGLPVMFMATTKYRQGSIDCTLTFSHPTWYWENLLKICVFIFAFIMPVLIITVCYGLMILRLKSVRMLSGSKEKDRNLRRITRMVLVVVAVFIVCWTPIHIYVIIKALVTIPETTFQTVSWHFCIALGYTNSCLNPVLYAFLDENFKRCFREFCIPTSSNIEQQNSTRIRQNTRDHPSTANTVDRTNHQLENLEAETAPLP
Sequence of Signal transducer and activator of transcription 1-alpha/beta (P42224 whole entry): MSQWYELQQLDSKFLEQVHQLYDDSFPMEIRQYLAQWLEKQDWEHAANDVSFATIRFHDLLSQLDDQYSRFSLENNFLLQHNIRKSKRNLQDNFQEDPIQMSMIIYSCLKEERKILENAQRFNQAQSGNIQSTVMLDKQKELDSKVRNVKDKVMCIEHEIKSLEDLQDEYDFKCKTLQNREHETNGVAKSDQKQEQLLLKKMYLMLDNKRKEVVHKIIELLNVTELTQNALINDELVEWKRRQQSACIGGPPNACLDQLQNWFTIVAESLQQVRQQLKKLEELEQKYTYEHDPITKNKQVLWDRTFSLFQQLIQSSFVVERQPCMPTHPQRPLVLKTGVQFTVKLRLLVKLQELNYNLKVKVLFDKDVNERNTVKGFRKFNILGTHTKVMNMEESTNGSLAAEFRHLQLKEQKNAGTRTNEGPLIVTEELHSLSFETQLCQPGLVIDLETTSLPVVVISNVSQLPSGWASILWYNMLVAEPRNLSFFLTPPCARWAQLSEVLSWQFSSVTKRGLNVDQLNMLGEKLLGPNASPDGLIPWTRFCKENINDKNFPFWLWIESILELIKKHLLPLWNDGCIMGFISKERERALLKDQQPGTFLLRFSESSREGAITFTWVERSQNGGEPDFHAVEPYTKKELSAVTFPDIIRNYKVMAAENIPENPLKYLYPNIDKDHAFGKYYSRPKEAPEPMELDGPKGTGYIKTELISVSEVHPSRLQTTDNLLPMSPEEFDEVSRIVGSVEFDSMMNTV
Sequence of Signal transducer and activator of transcription 3 (P40763 whole entry): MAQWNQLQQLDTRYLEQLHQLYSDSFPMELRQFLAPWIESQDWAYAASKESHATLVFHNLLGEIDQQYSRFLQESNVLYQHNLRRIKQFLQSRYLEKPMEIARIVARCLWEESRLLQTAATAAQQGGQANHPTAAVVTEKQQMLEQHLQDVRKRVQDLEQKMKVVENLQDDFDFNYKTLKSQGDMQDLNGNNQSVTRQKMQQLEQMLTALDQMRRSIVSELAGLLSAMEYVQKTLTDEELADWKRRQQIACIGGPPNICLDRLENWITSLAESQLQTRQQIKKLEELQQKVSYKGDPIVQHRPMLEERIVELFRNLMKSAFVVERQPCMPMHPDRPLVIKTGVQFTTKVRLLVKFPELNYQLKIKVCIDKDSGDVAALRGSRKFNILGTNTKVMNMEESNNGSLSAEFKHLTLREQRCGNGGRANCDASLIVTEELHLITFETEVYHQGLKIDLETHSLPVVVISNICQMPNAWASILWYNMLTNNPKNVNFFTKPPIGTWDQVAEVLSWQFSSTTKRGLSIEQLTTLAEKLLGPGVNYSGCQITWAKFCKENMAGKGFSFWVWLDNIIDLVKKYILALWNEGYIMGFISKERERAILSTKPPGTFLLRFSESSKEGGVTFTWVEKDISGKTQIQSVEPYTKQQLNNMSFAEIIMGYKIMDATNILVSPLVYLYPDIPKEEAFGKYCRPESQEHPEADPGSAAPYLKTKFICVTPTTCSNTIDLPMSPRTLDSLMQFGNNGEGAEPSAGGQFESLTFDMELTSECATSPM
Sequence of Sphingosine 1-phosphate receptor 5 (Q9H228 whole entry): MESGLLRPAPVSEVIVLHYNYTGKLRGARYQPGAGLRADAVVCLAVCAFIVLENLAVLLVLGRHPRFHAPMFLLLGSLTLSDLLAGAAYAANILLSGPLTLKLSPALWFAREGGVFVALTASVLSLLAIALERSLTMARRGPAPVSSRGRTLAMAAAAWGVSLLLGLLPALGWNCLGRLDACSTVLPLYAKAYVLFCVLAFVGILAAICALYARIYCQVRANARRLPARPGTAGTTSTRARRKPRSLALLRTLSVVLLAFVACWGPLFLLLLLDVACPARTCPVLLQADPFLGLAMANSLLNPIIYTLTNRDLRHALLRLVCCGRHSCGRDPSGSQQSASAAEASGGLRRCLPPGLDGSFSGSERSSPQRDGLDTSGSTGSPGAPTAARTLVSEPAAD
Sequence of Delta-type opioid receptor (P41143 whole entry): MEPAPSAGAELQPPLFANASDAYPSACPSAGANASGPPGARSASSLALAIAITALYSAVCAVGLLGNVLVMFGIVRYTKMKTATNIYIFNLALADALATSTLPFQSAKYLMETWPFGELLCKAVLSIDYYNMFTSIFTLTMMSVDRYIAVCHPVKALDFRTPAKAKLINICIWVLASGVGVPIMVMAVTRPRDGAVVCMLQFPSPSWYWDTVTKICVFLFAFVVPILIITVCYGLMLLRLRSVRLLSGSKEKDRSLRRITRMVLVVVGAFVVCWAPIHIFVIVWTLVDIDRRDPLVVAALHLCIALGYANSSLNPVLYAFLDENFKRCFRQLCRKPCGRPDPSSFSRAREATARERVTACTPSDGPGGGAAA

Question: For COc1ccc(S(=O)(=O)N2CCCCCC2)cc1C(=O)OCc1c(C)noc1C, which IC50 [1] is on record?
Answer: > 79.4 µM (inactive)

Question: What about the IC50 [2] of the same molecule?
Answer: > 79.4 µM (inactive)

Question: What about the IC50 [3] of the same molecule?
Answer: > 79.4 µM (inactive)

Question: With Cc1ccc(S(C)(=O)=O)c(C)c1NC(=O)c1ccc(-c2cc(Cl)ccc2Cl)o1 as the molecule, how does the IC50 [4] read?
Answer: > 25 µM (inactive)

Question: And the IC50 [5]?
Answer: 15.8 µM (inactive)

Question: What about the IC50 [6] of the same molecule?
Answer: > 25 µM (inactive)

Question: What about the IC50 [7] of the same molecule?
Answer: 13.8 µM (inactive)

Question: CC(C)OCCCn1c(-c2ccco2)nc2nc3ccccc3nc21 was tested. Which IC50 (Aminopeptidase N) did it give?
Answer: 92.6 µM (active)

Question: What about the IC50 [8] of the same molecule?
Answer: 7.07 µM (active)

Question: What about the IC50 [9] of the same molecule?
Answer: > 100 µM (inactive)

Question: Which results are given for CCC(OC(=O)C1=Cc2ccccc2OC1)C(=O)NC1CCCC1 (stereo not drawn)?
Answer: IC50 [10]: > 100 µM (inactive); EC50 [11]: > 100 µM (inactive)

Question: Which EC50 [12] does the source give for CCC(C)CN1C[C@@H]2C(CNC(=O)c3cc(Cl)cc(Cl)c3)[C@@H]2C1 (stereo partly drawn) here?
Answer: 4 µM (active)

Question: Which results are given for c1ccc(CC2CCN(c3ncnc4scc(-c5cccs5)c34)CC2)cc1?
Answer: IC50 [13]: 16.7 µM (inactive); IC50 [14]: > 55.7 µM (inactive)

Question: O=C(CNC(=O)c1ccc2c(c1)OCCO2)N/N=C/c1ccc(O)cc1O was tested. Which IC50 (Hexokinase HKDC1) did it give?
Answer: > 80 µM (inactive)

Question: What about the EC50 (Hexokinase-1) of the same molecule?
Answer: > 80 µM (inactive)

Question: And the IC50 [15]?
Answer: 160 µM (active)

Question: What does the source list for CC(=O)Oc1ccc(CSc2nnc(-c3ccccn3)n2Cc2ccco2)cc1?
Answer: EC50 [16]: > 32 µM (inactive); EC50 (Mu-type opioid receptor): > 32 µM (inactive); EC50 [17]: > 64 µM (inactive); EC50 [18]: > 20 µM (inactive)

Question: NS(=O)(=O)c1ccc(NC(=S)NC2CCCc3ccccc32)cc1 (stereo not drawn) was tested. Which IC50 [19] did it give?
Answer: 66.5 µM (active)
